Consider 1 compound from patent US10765638B2, “Particle formulation with polycation complex” (Yale University, priority 2017, dated 2020).

One experiment relates to FGFR1 dependent H1580. The settings on record: Lopez-Sambrooks et al., Nat Chem Biol. 2016; cited from earlier work.
The next experiment deals with parental PC9 cells. Description: Apoptosis by Annexin V flow cytometry. Type of experiment: cell-based. Particulars: NGI-1 10 μM, 48 h. As for the experimental part:
(§1) Briefly, 1×10^6 cells/sample were collected, washed in PBS, pelleted, and resuspended in incubation buffer (10 mm HEPES/NaOH, pH 7.4, 140 mm NaCl, 2.5 mm CaCl2) containing 1% annexin V and 1% 7-Amino-actinomycin D or propidium iodide, to identify dead cells. […] First-line analysis was performed with Flow Jo software. Approximately 50,000 cells were analyzed per experiment, and the mean value was obtained from 3 independent assays.
In general terms: Flow cytometry measures light scatter and fluorescence of single cells or particles in a stream.

The subject of another experiment is PC9-GR cells. Description: Apoptosis by Annexin V flow cytometry. The class given is cell-based. The settings on record: NGI-1 treatment alone. As for the experimental part: as §1
The test system of experiment [1] is SKMG3 cells. Description: Radiation clonogenic survival assay. Type of experiment: cell-based, human. As for the experimental part: Radiation (XRT) doses of either 0, 2, 4, or 6 Gy were delivered with a Precision X-ray 320-kV orthovoltage unit at a dose rate of 2 Gy/45 seconds (PXI X-Ray Systems). Twenty-four hours following XRT cells were washed, trypsinized, and re-plated in triplicate wells to determine clonogenic survival. […] Growth rates were determined by CellTiter 96 Non-Radioactive Cell Proliferation Assay (Promega; Madison, Wis., USA) according to the manufacturer's directions. For each experiment one thousand cells were seeded in triplicate wells in 96-wells plates. The following day, cell cultures were treated with NGI-1 (1 μM), Temozolomide (TMZ, 10 μM), Etoposide (VP-16, 0.1 μM) or combinations for 5 days. Absorbance at 540 nm was measured using the spectrophotometric reading (BioTek Synergy 2; Winooski, Vt. USA).

For the next experiment, the system named is MET, PDGFR and FGFR RTKs. Description: Western blot of MET, PDGFR and FGFR phosphorylation and levels in glioma cells. The class given is cell-based. As for the experimental part:
(§2) In this study, the D54, SKMG3, U251, T98G and 42-MG glioma cell lines were used. The source of D54, SKMG3 and U251 cells has been described previously (Contessa at al., Clin Cancer Res., 16:3205-14 (2010), Lopez et al., Int J Radiat Oncol Biol Phys., 69:214-20 (2007)). The 42-MG and T98G cells were provided by Todd Waldman (Georgetown University) and Dr. Ranjit Bindra (Yale University), respectively. The cells were cultured in DMEM/F12 (D54 and T98G), DMEM (42-MG and U251) or RPMI 1640 (SKMG3)+10% FBS supplemented with penicillin and streptomycin (Gibco, Life Technologies, Grand Island, N.Y., US) in a humidified incubator with 5% CO2, and they were kept in culture no more than 6 months after resuscitation from the original stocks. […] Mycoplasma cell culture contamination was routinely checked and ruled out using a biochemical test (MycoAlert Mycoplasma Detection Kit from Lonza, Rockland, Me. USA). Tunicamycin was purchased from Calbiochem/EMD-millipore (Burlington, Mass., USA). Cetuximab and Erlotinib were purchased at Selleck Chemicals LLC (Houston, Tex., USA). Luciferin was supplied by Promega (Madison, Wis. USA). For in vitro experiments, radiation (XRT) was administered at room temperature using a Precision X-ray 320-kV orthovoltage unit at a dose rate of 2 Gy/45 seconds (PXI X-Ray Systems) with 2 mm aluminum filter. For in vivo studies, radiation was administered at room temperature using a Precision X-ray 250-kV orthovoltage unit at a dose rate of 6.42 Gy/min (PXI X-Ray Systems) with 2 mm aluminum filter. Quality Assurance for both irradiators was performed monthly using a P.T.W. 0.3 cm^3 Ionization Chamber calibrated to NIST standards and quarterly dosimetry using thermoluminescent dosimeter (TLD)-based or ferrous sulfate-based dosimeters.
In general terms: In western blotting, separated proteins are transferred to a membrane and probed.

Another experiment has as its system EGFR, ErbB2, and ErbB3. Description: Western blot of ErbB family RTK glycosylation, phosphorylation and protein levels in glioma cells. The class given is cell-based. As for the experimental part: as §2
Experiment [2] concerns SKMG3 cells. Briefly: Phospho-γH2AX foci formation after radiation. Type of experiment: cell-based, human. The settings on record: 2 hours after 4 Gy, 10 μM NGI-1. As for the experimental part: To determine histone H2AX phosphorylation (γH2AX), cells were cultured on glass cover slips and pre-treated with either vehicle or NGI-1 for 48 hours followed by radiation treatment. Samples were fixed with 4% neutral-buffered formaldehyde, washed (0.1% triton in PBS for 30 minutes) and incubated for 1 hour with protein-blocking solution (PBS containing 10% normal goat-horse serum; Sigma-Aldrich, Saint Louis, Mich., US). Next, the slides were incubated with primary anti-phospho-histone γH2AX S139 (1:500, Millipore-Upstate, Billerica, Mass., US) followed by incubation with secondary antibody Alexa Fluor 555-conjugated goat anti-mouse IgG (1:750, Molecular probes/Invitrogen, Carlsbad, Calif., US), for 1 hour at room temperature. Nuclei were stained using DAPI containing vectashield mounting solution (Vector Labs). Confocal cellular images were captured with an inverted Zeiss LSM 510 Pascal laser confocal microscope (C. Zeiss, Jenna, Germany), using a 63/1.4 plan-apochromat objective. Five randomly selected fields s per slide were analyzed. Cells were counted using the ImageJ program, public domain Java image processing software.

The subject of the next experiment is HCC827-GR cells. Description: Apoptosis by Annexin V flow cytometry. Type of experiment: cell-based. The settings on record: NGI-1 treatment alone. As for the experimental part:
First-line analysis was performed with Flow Jo software. Approximately 50,000 cells were analyzed per experiment, and the mean value was obtained from 3 independent assays.

As to `Cc1cnc(NC(=O)c2cc(S(=O)(=O)N(C)C)ccc2N2CCCC2)s1` [NGI-1, 5-(dimethylsulfamoyl)-N-(5-methyl-1,3-thiazol-2-yl)-2-(pyrrolidin-1-yl)benzamide], the “sensitivity to OST inhibition with NGI-1” value in the experiment on FGFR1 dependent H1580 is recorded as “sensitive”. Besides, in the experiment with parental PC9 cells, the induction of apoptosis result was “does not induce apoptosis”. The induction of apoptosis entry in the experiment with PC9-GR cells is “no pro-apoptotic effect”. Besides, the “dose enhancement factor (DEF) at a surviving fraction of 0.4” value with SKMG3 cells [1] (10 μM NGI-1) is recorded as 1.2. Moreover, in the experiment on SKMG3 cells [1] (10 μM NGI-1 48 hours before radiation, 87% without NGI-1), the “survival fraction at 2 Gy (SF2Gy)” value worked out at 77%. Moreover, the “phosphorylation of PDGFR” value in the experiment on MET, PDGFR and FGFR RTKs (42-MG, SKMG3, and T98G cells) is on record as “uniformly reduced”. The “phosphorylation of MET” value in the experiment on MET, PDGFR and FGFR RTKs (D54, SKMG3, U251, and T98G cells) is “uniformly reduced phosphorylation”. Moreover, in the experiment with MET, PDGFR and FGFR RTKs (glioma cell lines), the FGFR1 levels entry is given as “increased” and the FGFR1 receptor phosphorylation entry is “not accompanied by an increase in receptor phosphorylation”. The ErbB3 protein levels entry with EGFR, ErbB2, and ErbB3 (D54 and SKMG3 cell lines) is given as “reduction of ErbB3 protein levels”. Besides, the ErbB2 protein levels entry with EGFR, ErbB2, and ErbB3 (SKMG3) is listed as “reduction in ErbB2 protein levels”. For the same compound, in the experiment on EGFR, ErbB2, and ErbB3 (SKMG3 and D54 cell lines), the “EGFR protein levels (as cause of reduced EGFR phosphorylation)” value is given as “not caused by decreases in EGFR protein levels”; the “glycosylation of EGFR, ErbB2, and ErbB3 (protein gel mobility on western blot)” value is recorded as “reduced glycosylation”; the “phosphorylation of EGFR, ErbB2, and ErbB3” value was “reduced”. Also, in the experiment on SKMG3 cells [2], the “increase of phospho-γH2AX foci formation compared to radiation alone (factor)” value was 1.2. Further, the induction of apoptosis entry with HCC827-GR cells was “not sufficient to induce apoptosis”.
